Assay results taken from PMC11651168, “Effective, but Safe? Physiologically Based Pharmacokinetic (PBPK)-Modeling-Based Dosing Study of Molnupiravir for Risk Assessment in Pediatric Subpopulations” (ACS Pharmacology & Translational Science, 2024).
Like-named read-outs stand apart in the source and are kept apart here. Marks after values point to notes of the source that are not given here.

Experiments:
[1] = PAMPA permeability assay; assay type: in vitro ADME
Procedure: For the PAMPA assay, a PAMP-096 kit from BioAssay Systems was used. Theophyllin, chloramphenicol, and diclofenac were used as low, high, and medium permeability controls, respectively. The assay was conducted as described in the manufacturer’s protocol. For all compounds, 10 mg/mL DMSO stocks were used. Compound concentrations were determined using HPLC-MS/MS. For the HPLC-MS measurements, samples were analyzed using an Agilent 1290 Infinity II HPLC system coupled to an AB Sciex QTrap 6500plus as described below. Permeability was determined as follows in eqs 2 and 3.
Effective permeability (Peff) was calculated using the following formula [drawing 2] 2 [drawing 3] 3 where the PAt is average peak area of the test compound or permeability standard and PAE is the peak area of the equilibrium standard. The value of C was calculated by the following formula, where donor volume (VD) is 0.2 cm^3, acceptor volume (VA) is 0.3 cm^3, membrane area is 0.24 cm^2, and incubation time is 72,360 s.
(§1) Samples were analyzed using an Agilent 1290 Infinity II HPLC system coupled to an AB Sciex QTrap 6500plus mass spectrometer. LC conditions were as follows: column: Agilent Zorbax Eclipse Plus C18, 50 × 2.1 mm, 1.8 μm; temperature: 30 °C; injection volume: 1 μL per sample; flow rate: 700 μL/min. Samples were collected under the following conditions. Solvents: A: 100% water +0.1% HCOOH; solvent B: 100% ACN +0.1% HCOOH. The gradient was as follows: 99% A at 0 min, 99% A until 1 min, 99–0% A from 1 to 3 min, 99% A until 3.2 min. Mass transitions are depicted in Table S1. Peaks of samples were quantified by using relative quantification. Data analysis was performed by using Multiquant 3.0 software (AB Sciex).

[2] = cited from earlier work
[3] = cited from earlier work; remark: listed apart in the source
[4] = Plasma protein binding assay; assay type: in vitro ADME; details: 2 h incubation; for fraction unbound at 2 h: plasma
Procedure: (§2) First, for the construction of the adult molnupiravir-NHC PBPK model, the physicochemical properties were incorporated. Moreover, ADME in vitro assays were performed to allow a better estimation of in vivo PK behavior. In particular, the plasma stability and the metabolic stability assays were used to derive information on the half-life of molnupiravir and the subsequent generation of NHC. […] This information was taken into account during parameter optimization. […] The determination of the log P value yielded information for calculation of the partition coefficients. […] This value was used as a basis for the subsequent parameter optimization. As NHC is further converted to NHC-TP, which is cleared via the endogenous nucleoside pool, renal clearance as well as hepatic clearance, indicated by our in vitro data, is not involved in clearance.
(§3) The plasma protein binding assay, the plasma stability assay, and the metabolic stability assay were performed as described previously.[30] For all of the assays, NHC and molnupiravir were used. Molnupiravir and NHC were purchased from Merck/Sigma.

[5] = cited from earlier work; remark: listed apart in the source
[6] = Microsomal metabolic stability assay; assay type: in vitro ADME; details: microsomes; for microsomal CLint: microsomal metabolic stability (Clint; in vitro)
Procedure: as §2, §3

[7] = tested on: rats; design: method as in earlier work; details: over three months; cited from earlier work
[8] = Plasma stability assay; assay type: in vitro ADME; details: for half-life: plasma
Procedure: as §2, §3

[9] = tested on: dogs; assay: Preclinical toxicity study in dogs; details: allometric scaling of 50 mg/kg/day in dogs, scaling factors of ref 38
[10] = Pediatric PBPK model for neonates, infants and children in early childhood (PK-Sim); design: species or system human
[11] = tested on: rats; assay: Preclinical bone and cartilage toxicity in rats; details: allometric scaling of 500 mg/kg/day in rats, scaling factors of ref 38
[12] = tested on: dogs; details: 14 days; cited from earlier work
[13] = tested on: SARS-CoV-2 wildtype; design: method as in Wen et al., 2023 (36); details: ref Wen et al., 2023 (36), read-out: Antiviral activity, EC50; cited from earlier work
[14] = tested on: SARS-CoV-2 omicron BA.1 lineage; design: method as in Wen et al., 2023 (36); details: ref Wen et al., 2023 (36), read-out: Antiviral activity, EC50; cited from earlier work
[15] = tested on: SARS-CoV-2 omicron BA.2 lineage; design: method as in Wen et al., 2023 (36); details: ref Wen et al., 2023 (36), read-out: Antiviral activity, EC50; cited from earlier work
[16] = tested on: SARS-CoV-2 beta; design: method as in Wen et al., 2023 (36); details: ref Wen et al., 2023 (36), read-out: Antiviral activity, EC50; cited from earlier work
[17] = tested on: SARS-CoV-2 alpha; design: method as in Wen et al., 2023 (36); details: ref Wen et al., 2023 (36), read-out: Antiviral activity, EC50; cited from earlier work
[18] = Experimental determination of log P (octan-1-ol/water); assay type: physicochemical; details: data from in vitro studies
Procedure: The log P experiment was performed for molnupiravir and its metabolite NHC. Octan-1-ol and water were saturated 24 h prior to the start of the experiment. Each compound was added to the octan-1-ol phase at a final concentration of 100 ng/mL. Two setups were used: octan-1-ol/water (1:1) and octan-1-ol/water (1:10). After addition of the compound, each phase was shaken at 2000 rpm for 1 h, and then, phases were separated by centrifugation at 13,000 rpm for 5 min at 4 °C. From each sample, 10 μL of water layer and octanol layer was diluted to 100 μL with DMSO for high-performance liquid chromatography tandem mass spectrometry (HPLC-MS/MS) analysis. The log P was calculated by Formula 1. [drawing 1] 1
as §1, with “Data analysis was performed by using Multiquant 3.0 software (AB Sciex).” left out

[19] = tested on: SARS-CoV-2 delta; design: method as in Wen et al., 2023 (36); details: ref Wen et al., 2023 (36), read-out: Antiviral activity, EC50; cited from earlier work

CC(C)C(=O)OC[C@H]1O[C@@H](n2ccc(NO)nc2=O)[C@H](O)[C@@H]1O [Molnupiravir]
permeability (in words) [1]: moderate permeability
permeability (PAMPA) ([1]; 72360 s): 3.1 10^–6 cm/s
Papp at 72360 s ([1]; data from in vitro studies, read-out: specific intestinal permeability (converted)): 3.1 ×10⁻⁶ cm/s
decrease in Cmax with food (ratio) ([2]; concomitant food consumption): 1.6
effect of food on total exposure (AUC0–∞) ([2]; concomitant food consumption): not impacted
Tmax ([2]; with concomitant food consumption): 3.0 h
Tmax ([2]; without food): 1.0 h
solubility [3]: 41[21] mg/mL
plasma protein binding (%) [4]: 38.08 ^b %
fraction unbound at 2 h [4]: ~0.62
pKa ([5]; first of three values): 2.2
pKa ([5]; second of three printed values): 10.2
pKa ([5]; third of three printed values): 12.0
microsomal metabolic stability (Clint; in vitro) [6]: 40.6 ^b μL/min/mg protein
microsomal CLint [6]: ~40 µL/min/mg
dose at which bone and cartilage toxicity was observed [7]: exceeding 500 mg/kg/day
plasma stability (in words) [8]: degraded rapidly in plasma
half-life [8]: < 0.25 h
human equivalent dose of the nonobserved toxicity dose in dogs [9]: 27 mg/kg/day
fold higher doses needed in pediatric subpopulations for similar efficacy to adults [10]: 2–3 fold
human equivalent dose of the toxicity-associated rat dose [11]: around 80 mg/kg/day
dose at which no toxicity was observed [12]: 50 mg/kg/day

O=c1nc(NO)ccn1[C@@H]1O[C@H](CO)[C@@H](O)[C@H]1O [NHC, β-D-N4-hydroxycytidine]
EC50 [13]: 300 nM
EC50 [14]: 280 nM
EC50 [15]: 670 nM
solubility [3]: 21[21] mg/mL
plasma protein binding (%) [4]: 38.84 ^b %
fraction unbound at 2 h [4]: ~0.64
EC50 [16]: 480 nM
EC50 [17]: 530 nM
pKa ([5]; model input, source not given): 12.30
logP [18]: 0.1
microsomal CLint [6]: ~11.6 µL/min/mg
plasma stability (in words) [8]: stable in plasma
half-life [8]: > 4 h
EC50 [19]: 890 nM
